Measured values taken from US9556228B2 (Universitaet Leipzig, priority 2011, dated 2017).
Converted amounts (≈) assume the structure as drawn. Peptide text beside a SMILES is read from it.

Experiments:
Escherichia coli UB 1005 = assay: Minimum inhibitory concentration (MIC), broth microdilution; assay type: cell-based; conditions: for Improvement over Native Sequence (SEQ No. 2) E. coli UB1005: fold, from MIC in 1/8 MHB; for MIC E. coli UB1005: 1/8 MHB, Table 4
Experimental: (§1) The minimum inhibitory concentrations (MIC) of the peptides were determined in a double assay of triplicates using a positive control sample (gentamycin) and a negative control sample (0.9% NaCl solution), according to a modified protocol from Wiegand et al. (Wiegand, 2008).
(§2) For this purpose, the peptides were dissolved in water and were diluted in a double dilution series with 1/8 MH (eight-fold diluted Mueller-Hinton-Medium—2.6 g/L, Merck) in sterile 96-well, plates (Greiner Bio-One GmbH) in twelve dilution steps from 128 μg/mL to 62.5 ng/mL. Overnight cultures were adjusted using ⅛ MHB to approximately 1.5×10^7 colony forming units per mL. Of these, 50 μL of peptide solution per well was mixed with 50 μL bacteria solution each to obtain an initial concentration of […] bacteria per well. After 20 hours of incubation at 37′C, the absorption was determined at 595 nm (microplate reader, Wallac Victor3, Perkin Elmer). The minimum inhibitory concentration was identified as the lowest peptide concentration at which no bacterial growth could be detected.
(§3) In the experiment, the antibacterial activity of the peptides according to the invention in relation to the following bacterial strains was analyzed: Pseudomonas aeruginosa PAO1 (wt strain), Pseudomonas aeruginosa DSM 9644, Staphylococcus aureus DSM 1104/ATCC 25923, Staphylococcus aureus ATCC 6247, Escherichia coli UB 1005 (F—, nalA37, metB1) and Escherichia coli ATCC25922.

[1] = test system: Staphylococcus aureus DSM 1104/ATCC 25923; assay type: cell-based; conditions: for MIC S. aureus ATCC 25923 / MIC S. aureus DSM 1104/ATCC 25923: DSM 1104; for Improvement over Native Sequence (SEQ No. 2) S. aureus ATCC 25923: fold, from MIC in 1/8 MHB
Experimental: as §1, §2, §3

[2] = test system: Pseudomonas aeruginosa PAO1 (wt strain); assay type: cell-based; conditions: for Improvement over Native Sequence (SEQ No. 2) P. aeruginosa PAO1 wt: fold, from MIC in 1/8 MHB
Experimental: as §1, §2, §3

[3] = test system: Pseudomonas aeruginosa DSM 9644; assay type: cell-based
Experimental: as §1
as §2, with “For this purpose, the peptides were dissolved in water and were diluted in a double dilution series with 1/8 MH (eight-fold diluted Mueller-Hinton-Medium—2.6 g/L, Merck) in sterile 96-well, plates (Greiner Bio-One GmbH) in twelve dilution steps from 128 μg/mL to 62.5 ng/mL.” left out
as §3

[4] = test system: Escherichia coli ATCC25922; assay type: cell-based
S. aureus DSM 6247 = assay type: cell-based, Staphylococcus aureus
Experimental: as §1, §2, §3

| Compound | Improvement over Native Sequence (SEQ No. 2) E. coli UB1005 (Escherichia coli UB 1005) | MIC S. aureus ATCC 25923 [1] [µg/mL] | Improvement over Native Sequence (SEQ No. 2) S. aureus ATCC 25923 [1] | MIC P. aeruginosa PAO1 wt [2] [µg/mL] | Improvement over Native Sequence (SEQ No. 2) P. aeruginosa PAO1 wt [2] | MIC P. aeruginosa PAO DSM 9644 [3] [µg/mL] | MIC E. coli UB1005 (Escherichia coli UB 1005) [µg/mL] | MIC E. coli ATCC 25922 [4] [µg/mL] | MIC S. aureus DSM 6247 (S. aureus DSM 6247) [µg/mL] | MIC S. aureus DSM 1104/ATCC 25923 [1] [µg/mL] |
| --- | --- | --- | --- | --- | --- | --- | --- | --- | --- | --- |
| CC[C@H](C)[C@H](NC(=O)[C@H](Cc1ccc(O)cc1)NC(=O)[C@@H](NC(=O)[C@@H]1CCCN1C(=O)[C@H](CCCNC(=N)N)NC(=O)[C@H](CC(N)=O)NC(=O)[C@H](Cc1c[nH]c2ccccc12)NC(=O)CN)C(C)C)C(=O)N1CCC[C@H]1C(=O)N[C@@H](CCCNC(=N)N)C(=O)N1CCC[C@H]1C(=O)N[C@@H](CCCNC(=N)N)C(=O)N1CCC[C@H]1C(=O)N1CCC[C@H]1C(=O)N[C@@H](Cc1c[nH]cn1)C(=O)N1CCC[C@H]1C(=O)N[C@@H](CCCNC(=N)N)C(=O)N[C@@H](CC(C)C)C(N)=O [compound 63] (H-GWNRPVYIPRPRPPHPRL-NH2; N-terminus assumed) | 8 | 16 (≈ 7.25 µM) | 16 | 16 to 32 | 16-32 |  |  |  |  |  |
| CC[C@H](C)[C@H](NC(=O)[C@H](Cc1ccc(O)cc1)NC(=O)[C@@H](NC(=O)[C@@H]1CCCN1C(=O)[C@H](CCCNC(=N)N)NC(=O)[C@H](CC(N)=O)NC(=O)[C@H](CC(N)=O)NC(=O)CN)C(C)C)C(=O)N1CCC[C@H]1C(=O)N[C@@H](CCCNC(=N)N)C(=O)N1CCC[C@H]1C(=O)N[C@@H](CCCNC(=N)N)C(=O)N[C@@H](CCCNC(=N)N)C(=O)N1CCC[C@H]1C(=O)N[C@@H](Cc1c[nH]cn1)C(=O)N1CCC[C@H]1C(=O)N[C@@H](CCCNC(=N)N)C(=O)N[C@@H](CC(C)C)C(N)=O [compound 64] (H-GNNRPVYIPRPRRPHPRL-NH2; N-terminus assumed) | 2 | 4 (≈ 1.82 µM) | 64 | 64 (≈ 29.2 µM) | 8 | 32 (≈ 14.6 µM) | 2.5 (≈ 1.14 µM) | 8 (≈ 3.65 µM) | 2 (≈ 0.911 µM) | 4 (≈ 1.82 µM) |
| CC[C@H](C)[C@H](NC(=O)[C@H](Cc1ccc(O)cc1)NC(=O)[C@@H](NC(=O)[C@@H]1CCCN1C(=O)[C@H](CCCNC(=N)N)NC(=O)[C@H](CC(N)=O)NC(=O)[C@H](CC(N)=O)NC(=O)CN)C(C)C)C(=O)N1CCC[C@H]1C(=O)N[C@@H](CCC(N)=O)C(=O)N1CCC[C@H]1C(=O)N[C@@H](CCCNC(=N)N)C(=O)N1CCC[C@H]1C(=O)N1CCC[C@H]1C(=O)N[C@@H](Cc1c[nH]cn1)C(=O)N1CCC[C@H]1C(=O)N[C@@H](CCCNC(=N)N)C(=O)N[C@@H](CC(C)C)C(N)=O [compound 90] (H-GNNRPVYIPQPRPPHPRL-NH2; N-terminus assumed) | 4 | >125 |  | 250 (≈ 119 µM) | 2 |  | 1.25 (≈ 0.593 µM) | 2 (≈ 0.949 µM) | 64 (≈ 30.4 µM) | >125 |
| CC[C@H](C)[C@H](NC(=O)[C@H](Cc1ccc(O)cc1)NC(=O)[C@@H](NC(=O)[C@@H]1CCCN1C(=O)[C@H](CC(=O)O)NC(=O)[C@H](CC(N)=O)NC(=O)[C@H](CC(N)=O)NC(=O)CN)C(C)C)C(=O)N1CCC[C@H]1C(=O)N[C@@H](CCC(N)=O)C(=O)N1CCC[C@H]1C(=O)N[C@@H](CCCNC(=N)N)C(=O)N1CCC[C@H]1C(=O)N1CCC[C@H]1C(=O)N[C@@H](Cc1c[nH]cn1)C(=O)N1CCC[C@H]1C(=O)N[C@@H](CCCNC(=N)N)C(=O)N[C@@H](CC(C)C)C(N)=O [compound 91] (H-GNNDPVYIPQPRPPHPRL-NH2; N-terminus assumed) | <0.25 | >60.5 |  | 121.0 (≈ 58.6 µM) | 4 |  | >19.4 |  |  |  |
